{
  "source": "paper PMC6934184",
  "about": "“Selective DNA-PKcs inhibition extends the therapeutic index of localized radiotherapy and chemotherapy” (The Journal of Clinical Investigation, 2019)",
  "target": "T1, TEK (TIE2) Y1108F (Homo sapiens, UniProt Q02763, Y1108F)",
  "T1 construct": "purchased Thermo Fisher Scientific (Life Technologies) SelectScreen",
  "T1 sequence (Q02763 23-1124 Y1108F)": "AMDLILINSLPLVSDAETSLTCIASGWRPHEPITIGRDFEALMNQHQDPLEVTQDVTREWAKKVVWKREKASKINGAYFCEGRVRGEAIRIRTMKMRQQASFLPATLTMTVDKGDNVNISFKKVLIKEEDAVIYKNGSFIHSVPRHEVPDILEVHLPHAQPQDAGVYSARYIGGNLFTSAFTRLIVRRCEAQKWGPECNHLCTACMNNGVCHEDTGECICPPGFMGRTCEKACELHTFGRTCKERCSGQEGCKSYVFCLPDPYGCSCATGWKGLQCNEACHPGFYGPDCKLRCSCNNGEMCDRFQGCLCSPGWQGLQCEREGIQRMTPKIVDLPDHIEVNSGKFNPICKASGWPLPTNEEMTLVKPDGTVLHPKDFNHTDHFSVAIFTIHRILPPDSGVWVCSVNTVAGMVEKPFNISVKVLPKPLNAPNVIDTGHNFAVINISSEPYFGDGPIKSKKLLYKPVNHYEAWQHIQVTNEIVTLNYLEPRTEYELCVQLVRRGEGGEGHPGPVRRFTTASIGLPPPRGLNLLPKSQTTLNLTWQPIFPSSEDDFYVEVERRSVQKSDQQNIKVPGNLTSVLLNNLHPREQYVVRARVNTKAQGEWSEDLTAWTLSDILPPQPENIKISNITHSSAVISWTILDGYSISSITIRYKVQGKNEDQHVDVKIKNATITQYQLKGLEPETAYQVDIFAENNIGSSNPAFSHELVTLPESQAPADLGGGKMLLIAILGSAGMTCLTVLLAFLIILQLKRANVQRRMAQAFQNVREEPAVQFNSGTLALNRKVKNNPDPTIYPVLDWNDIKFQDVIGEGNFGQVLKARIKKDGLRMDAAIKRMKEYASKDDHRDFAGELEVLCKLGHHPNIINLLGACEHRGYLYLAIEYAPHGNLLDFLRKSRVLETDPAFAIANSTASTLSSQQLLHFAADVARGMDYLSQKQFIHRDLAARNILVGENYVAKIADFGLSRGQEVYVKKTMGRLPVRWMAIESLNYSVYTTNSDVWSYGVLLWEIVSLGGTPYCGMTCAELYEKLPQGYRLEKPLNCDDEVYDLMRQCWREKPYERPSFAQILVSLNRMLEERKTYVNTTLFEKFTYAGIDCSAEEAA",
  "assay": "SelectScreen LanthaScreen",
  "assay_type": "binding",
  "conditions": "read-out: % displacement",
  "how_it_was_run": "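Percent values come from Thermo SelectScreen profiling of NU5455, combining activity and binding assays. CSF1R was run in Z'LYTE format at Km app ATP, and CAMK1 in Adapta format with ATP listed at 10.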",
  "data": [
    {"smiles": "CN(C(=O)CN1CCOCC1)c1ccc2sc3c(-c4cccc5c(=O)cc(N6CC7CCC(C6)O7)oc45)cccc3c2c1", "note": "[NU5455]", "values": [
      {"measurement": "inhibition at 1 µM", "value": -0.3, "unit": "%"}
    ]}
  ]
}
